Data as given in PMC6151383 (Molecules : A Journal of Synthetic Chemistry and Natural …, 2017).
In brackets after ≈: the same amount, converted by molar mass.

test system: Trichosporon asahii 1188; experiment: Antifungal microdilution broth MIC, T. asahii; type: cell-based; details: Trichosporon asahii, 1188, 24 h, read-out: MIC TA 24 h

With O=S(=O)(Nc1ncccn1)c1ccc(N=Cc2cc(I)ccc2O)cc1 [Compound 2e, 4-[(2-Hydroxy-5-iodobenzylidene)amino]-N-(pyrimidin-2-yl)benzenesulfonamide] as the molecule, how does the MIC read?
Its MIC is 125 µM (≈ 60 µg/mL).

same assay, conditions: Trichosporon asahii, 1188, 48 h, read-out: MIC TA 48 h

Which MIC does the source give for O=S(=O)(Nc1ncccn1)c1ccc(N=Cc2cc(I)ccc2O)cc1 [Compound 2e, 4-[(2-Hydroxy-5-iodobenzylidene)amino]-N-(pyrimidin-2-yl)benzenesulfonamide] here?
The MIC was 125 µM (≈ 60 µg/mL).

test system: Klebsiella pneumoniae D 11750/08; experiment: not given; details: 24 h

For O=S(=O)(Nc1ncccn1)c1ccc(N=Cc2cc(I)ccc2O)cc1 [Compound 2e, 4-[(2-Hydroxy-5-iodobenzylidene)amino]-N-(pyrimidin-2-yl)benzenesulfonamide], which “MIC KP 24 h” value is on record?
Its value is 500 µM (≈ 240 µg/mL).

same assay, conditions: 48 h

How did the “MIC KP 48 h” value turn out when O=S(=O)(Nc1ncccn1)c1ccc(N=Cc2cc(I)ccc2O)cc1 [Compound 2e, 4-[(2-Hydroxy-5-iodobenzylidene)amino]-N-(pyrimidin-2-yl)benzenesulfonamide] was run?
The value was 500 µM (≈ 240 µg/mL).

test system: Lichtheimia corymbifera 272; experiment: Antifungal microdilution broth MIC, L. corymbifera; type: cell-based; details: Lichtheimia corymbifera, 272; 48 h incubation; read-out: MIC LC 48 h

For O=S(=O)(Nc1ncccn1)c1ccc(N=Cc2cc(I)ccc2O)cc1 [Compound 2e, 4-[(2-Hydroxy-5-iodobenzylidene)amino]-N-(pyrimidin-2-yl)benzenesulfonamide], which MIC is on record?
The MIC was greater than 500 µM.

test system: Candida krusei E28; experiment: Antifungal microdilution broth MIC, C. krusei; type: cell-based; details: Pichia kudriavzevii, E28, 24 h, read-out: MIC CK 24 h

With O=S(=O)(Nc1ncccn1)c1ccc(N=Cc2cc(I)ccc2O)cc1 [Compound 2e, 4-[(2-Hydroxy-5-iodobenzylidene)amino]-N-(pyrimidin-2-yl)benzenesulfonamide] as the molecule, how does the MIC read?
The MIC was 62.5 µM (≈ 30 µg/mL).

same assay, conditions: Pichia kudriavzevii, E28, 48 h, read-out: MIC CK 48 h

With O=S(=O)(Nc1ncccn1)c1ccc(N=Cc2cc(I)ccc2O)cc1 [Compound 2e, 4-[(2-Hydroxy-5-iodobenzylidene)amino]-N-(pyrimidin-2-yl)benzenesulfonamide] as the molecule, how does the MIC read?
The MIC was 125 µM (≈ 60 µg/mL).

test system: Staphylococcus aureus CCM 4516/08; experiment: Antibacterial microdilution broth MIC, S. aureus; type: cell-based; details: Staphylococcus aureus, CCM4516; 48 h incubation; read-out: MIC SA 48 h

For O=S(=O)(Nc1ncccn1)c1ccc(N=Cc2cc(I)ccc2O)cc1 [Compound 2e, 4-[(2-Hydroxy-5-iodobenzylidene)amino]-N-(pyrimidin-2-yl)benzenesulfonamide], which MIC is on record?
The MIC was 250 µM (≈ 120 µg/mL).

test system: Candida glabrata 20/I; experiment: Antifungal microdilution broth MIC, C. glabrata; type: cell-based; details: Nakaseomyces glabratus, 24 h, read-out: MIC CG 24 h

For O=S(=O)(Nc1ncccn1)c1ccc(N=Cc2cc(I)ccc2O)cc1 [Compound 2e, 4-[(2-Hydroxy-5-iodobenzylidene)amino]-N-(pyrimidin-2-yl)benzenesulfonamide], which MIC is on record?
The MIC was 62.5 µM (≈ 30 µg/mL).

same assay, conditions: Nakaseomyces glabratus, 48 h, read-out: MIC CG 48 h

How did the MIC turn out when O=S(=O)(Nc1ncccn1)c1ccc(N=Cc2cc(I)ccc2O)cc1 [Compound 2e, 4-[(2-Hydroxy-5-iodobenzylidene)amino]-N-(pyrimidin-2-yl)benzenesulfonamide] was run?
Its MIC is 62.5 µM (≈ 30 µg/mL).

test system: Trichophyton interdigitale 445; experiment: Antifungal microdilution broth MIC, T. interdigitale; type: cell-based; details: Trichophyton interdigitale, 445; 72 h incubation; read-out: MIC TI 72 h

How did the MIC turn out when O=S(=O)(Nc1ncccn1)c1ccc(N=Cc2cc(I)ccc2O)cc1 [Compound 2e, 4-[(2-Hydroxy-5-iodobenzylidene)amino]-N-(pyrimidin-2-yl)benzenesulfonamide] was run?
Its MIC is 31.2 µM (≈ 15 µg/mL).

same assay, conditions: Trichophyton interdigitale, 445; 120 h incubation; read-out: MIC TI 120 h

O=S(=O)(Nc1ncccn1)c1ccc(N=Cc2cc(I)ccc2O)cc1 [Compound 2e, 4-[(2-Hydroxy-5-iodobenzylidene)amino]-N-(pyrimidin-2-yl)benzenesulfonamide] was tested. Which MIC did it give?
Its MIC is 31.2 µM (≈ 15 µg/mL).

test system: Mycobacterium avium 330/88; experiment: In vitro antimycobacterial MIC, M. avium; type: cell-based; details: 330/88, 336 h, 14 d incubation, read-out: MIC M. avium 330/88 14 d

How did the MIC turn out when O=S(=O)(Nc1ncccn1)c1ccc(N=Cc2cc(I)ccc2O)cc1 [Compound 2e, 4-[(2-Hydroxy-5-iodobenzylidene)amino]-N-(pyrimidin-2-yl)benzenesulfonamide] was run?
Its MIC is 125 µM (≈ 60 µg/mL).

same assay, conditions: 330/88, 504 h, 21 d incubation, read-out: MIC M. avium 330/88 21 d

O=S(=O)(Nc1ncccn1)c1ccc(N=Cc2cc(I)ccc2O)cc1 [Compound 2e, 4-[(2-Hydroxy-5-iodobenzylidene)amino]-N-(pyrimidin-2-yl)benzenesulfonamide] was tested. Which MIC did it give?
The MIC was 250 µM (≈ 120 µg/mL).

test system: M. kansasii 6509/96; experiment: In vitro antimycobacterial MIC, M. kansasii clinical isolate; type: cell-based; details: Mycobacterium kansasii, 6509/96, 168 h; 7 d incubation; read-out: MIC M. kansasii 6509/96 7 d

For O=S(=O)(Nc1ncccn1)c1ccc(N=Cc2cc(I)ccc2O)cc1 [Compound 2e, 4-[(2-Hydroxy-5-iodobenzylidene)amino]-N-(pyrimidin-2-yl)benzenesulfonamide], which MIC is on record?
The MIC was 32 µM (≈ 15.4 µg/mL).

same assay, conditions: Mycobacterium kansasii, 6509/96, 336 h; 14 d incubation; read-out: MIC M. kansasii 6509/96 14 d

How did the MIC turn out when O=S(=O)(Nc1ncccn1)c1ccc(N=Cc2cc(I)ccc2O)cc1 [Compound 2e, 4-[(2-Hydroxy-5-iodobenzylidene)amino]-N-(pyrimidin-2-yl)benzenesulfonamide] was run?
The MIC was 32 µM (≈ 15.4 µg/mL).

same assay, conditions: Mycobacterium kansasii, 6509/96, 504 h; 21 d incubation; read-out: MIC M. kansasii 6509/96 21 d

O=S(=O)(Nc1ncccn1)c1ccc(N=Cc2cc(I)ccc2O)cc1 [Compound 2e, 4-[(2-Hydroxy-5-iodobenzylidene)amino]-N-(pyrimidin-2-yl)benzenesulfonamide] was tested. Which MIC did it give?
The MIC was 62.5 µM (≈ 30 µg/mL).

test system: ESBL-positive Klebsiella pneumoniae J 14368/08; experiment: not given; details: 24 h

With O=S(=O)(Nc1ncccn1)c1ccc(N=Cc2cc(I)ccc2O)cc1 [Compound 2e, 4-[(2-Hydroxy-5-iodobenzylidene)amino]-N-(pyrimidin-2-yl)benzenesulfonamide] as the molecule, how does the “MIC KP-E 24 h” value read?
The value was 500 µM (≈ 240 µg/mL).

same assay, conditions: 48 h

O=S(=O)(Nc1ncccn1)c1ccc(N=Cc2cc(I)ccc2O)cc1 [Compound 2e, 4-[(2-Hydroxy-5-iodobenzylidene)amino]-N-(pyrimidin-2-yl)benzenesulfonamide] was tested. Which “MIC KP-E 48 h” value did it give?
Its value is 500 µM (≈ 240 µg/mL).

test system: Mycobacterium tuberculosis 331/88 (H37Rv); experiment: In vitro antimycobacterial MIC, M. tuberculosis; type: cell-based; details: 336 h, 14 d incubation, read-out: MIC Mtb. 331/88 14 d

Which MIC does the source give for O=S(=O)(Nc1ncccn1)c1ccc(N=Cc2cc(I)ccc2O)cc1 [Compound 2e, 4-[(2-Hydroxy-5-iodobenzylidene)amino]-N-(pyrimidin-2-yl)benzenesulfonamide] here?
Its MIC is 62.5 µM (≈ 30 µg/mL).

same assay, conditions: 504 h, 21 d incubation, read-out: MIC Mtb. 331/88 21 d

O=S(=O)(Nc1ncccn1)c1ccc(N=Cc2cc(I)ccc2O)cc1 [Compound 2e, 4-[(2-Hydroxy-5-iodobenzylidene)amino]-N-(pyrimidin-2-yl)benzenesulfonamide] was tested. Which MIC did it give?
Its MIC is 125 µM (≈ 60 µg/mL).

test system: Candida albicans ATCC 44859; experiment: Antifungal microdilution broth MIC, C. albicans; type: cell-based; details: ATCC44859, 24 h, read-out: MIC CA 24 h

For O=S(=O)(Nc1ncccn1)c1ccc(N=Cc2cc(I)ccc2O)cc1 [Compound 2e, 4-[(2-Hydroxy-5-iodobenzylidene)amino]-N-(pyrimidin-2-yl)benzenesulfonamide], which MIC is on record?
Its MIC is 62.5 µM (≈ 30 µg/mL).

same assay, conditions: ATCC44859, 48 h, read-out: MIC CA 48 h

For O=S(=O)(Nc1ncccn1)c1ccc(N=Cc2cc(I)ccc2O)cc1 [Compound 2e, 4-[(2-Hydroxy-5-iodobenzylidene)amino]-N-(pyrimidin-2-yl)benzenesulfonamide], which MIC is on record?
The MIC was 125 µM (≈ 60 µg/mL).

test system: Aspergillus fumigatus 231; experiment: Antifungal microdilution broth MIC, A. fumigatus; type: cell-based; details: Aspergillus fumigatus, 231; 48 h incubation; read-out: MIC AF 48 h

O=S(=O)(Nc1ncccn1)c1ccc(N=Cc2cc(I)ccc2O)cc1 [Compound 2e, 4-[(2-Hydroxy-5-iodobenzylidene)amino]-N-(pyrimidin-2-yl)benzenesulfonamide] was tested. Which MIC did it give?
Its MIC is 250 µM (≈ 120 µg/mL).

test system: Staphylococcus epidermidis H 6966/08; experiment: Antibacterial microdilution broth MIC, S. epidermidis; type: cell-based; details: Staphylococcus epidermidis, H6966/08, 24 h, read-out: MIC SE 24 h

Which MIC does the source give for O=S(=O)(Nc1ncccn1)c1ccc(N=Cc2cc(I)ccc2O)cc1 [Compound 2e, 4-[(2-Hydroxy-5-iodobenzylidene)amino]-N-(pyrimidin-2-yl)benzenesulfonamide] here?
The MIC was 62.5 µM (≈ 30 µg/mL).

same assay, conditions: Staphylococcus epidermidis, H6966/08, 48 h, read-out: MIC SE 48 h

O=S(=O)(Nc1ncccn1)c1ccc(N=Cc2cc(I)ccc2O)cc1 [Compound 2e, 4-[(2-Hydroxy-5-iodobenzylidene)amino]-N-(pyrimidin-2-yl)benzenesulfonamide] was tested. Which MIC did it give?
The MIC was 125 µM (≈ 60 µg/mL).

test system: Pseudomonas aeruginosa CCM 1961; experiment: Antibacterial microdilution broth MIC, P. aeruginosa; type: cell-based; details: Pseudomonas aeruginosa, CCM1961; 48 h incubation; read-out: MIC PA 48 h

O=S(=O)(Nc1ncccn1)c1ccc(N=Cc2cc(I)ccc2O)cc1 [Compound 2e, 4-[(2-Hydroxy-5-iodobenzylidene)amino]-N-(pyrimidin-2-yl)benzenesulfonamide] was tested. Which MIC did it give?
The MIC was 500 µM (≈ 240 µg/mL).

test system: Mycobacterium kansasii 235/80; experiment: In vitro antimycobacterial MIC, M. kansasii 235/80; type: cell-based; details: 235/80, 168 h, 7 d incubation, read-out: MIC M. kansasii 235/80 7 d

Which MIC does the source give for O=S(=O)(Nc1ncccn1)c1ccc(N=Cc2cc(I)ccc2O)cc1 [Compound 2e, 4-[(2-Hydroxy-5-iodobenzylidene)amino]-N-(pyrimidin-2-yl)benzenesulfonamide] here?
Its MIC is 32 µM (≈ 15.4 µg/mL).

same assay, conditions: 235/80, 336 h, 14 d incubation, read-out: MIC M. kansasii 235/80 14 d

With O=S(=O)(Nc1ncccn1)c1ccc(N=Cc2cc(I)ccc2O)cc1 [Compound 2e, 4-[(2-Hydroxy-5-iodobenzylidene)amino]-N-(pyrimidin-2-yl)benzenesulfonamide] as the molecule, how does the MIC read?
Its MIC is 62.5 µM (≈ 30 µg/mL).

same assay, conditions: 235/80, 504 h, 21 d incubation, read-out: MIC M. kansasii 235/80 21 d

Which MIC does the source give for O=S(=O)(Nc1ncccn1)c1ccc(N=Cc2cc(I)ccc2O)cc1 [Compound 2e, 4-[(2-Hydroxy-5-iodobenzylidene)amino]-N-(pyrimidin-2-yl)benzenesulfonamide] here?
The MIC was 125 µM (≈ 60 µg/mL).

test system: Candida tropicalis 156; experiment: Antifungal microdilution broth MIC, C. tropicalis; type: cell-based; details: Candida tropicalis, 156, 24 h, read-out: MIC CT 24 h

For O=S(=O)(Nc1ncccn1)c1ccc(N=Cc2cc(I)ccc2O)cc1 [Compound 2e, 4-[(2-Hydroxy-5-iodobenzylidene)amino]-N-(pyrimidin-2-yl)benzenesulfonamide], which MIC is on record?
Its MIC is 125 µM (≈ 60 µg/mL).

same assay, conditions: Candida tropicalis, 156, 48 h, read-out: MIC CT 48 h

Which MIC does the source give for O=S(=O)(Nc1ncccn1)c1ccc(N=Cc2cc(I)ccc2O)cc1 [Compound 2e, 4-[(2-Hydroxy-5-iodobenzylidene)amino]-N-(pyrimidin-2-yl)benzenesulfonamide] here?
Its MIC is 125 µM (≈ 60 µg/mL).

test system: Escherichia coli CCM 4517; experiment: Antibacterial microdilution broth MIC, E. coli; type: cell-based; details: Escherichia coli, CCM4517; 48 h incubation; read-out: MIC EC 48 h

O=S(=O)(Nc1ncccn1)c1ccc(N=Cc2cc(I)ccc2O)cc1 [Compound 2e, 4-[(2-Hydroxy-5-iodobenzylidene)amino]-N-(pyrimidin-2-yl)benzenesulfonamide] was tested. Which MIC did it give?
The MIC was 250 µM (≈ 120 µg/mL).

test system: Enterococcus faecalis J 14365/08; experiment: Antibacterial microdilution broth MIC, E. faecalis; type: cell-based; details: Enterococcus faecalis, J14365/08; 48 h incubation; read-out: MIC EF 48 h

O=S(=O)(Nc1ncccn1)c1ccc(N=Cc2cc(I)ccc2O)cc1 [Compound 2e, 4-[(2-Hydroxy-5-iodobenzylidene)amino]-N-(pyrimidin-2-yl)benzenesulfonamide] was tested. Which MIC did it give?
The MIC was 500 µM (≈ 240 µg/mL).
